From US8906889B2, “C-3 cycloalkenyl triterpenoids with HIV maturation inhibitory activity” (priority 2012, dated 2014)
pEC50: −log10 of the molar value.

Tested on: recombinant NL4-3 virus (Renilla luciferase, Gag P373S)
Assay: HIV cell culture assay (luciferase reporter, MT-2 cells)
Assay type: cell-based
Conditions: Renilla, NL43, MT-2 cells infected for 4-5 days with NLRluc recombinants; luciferase activity
In short: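 MT-2 cells were infected for 4–5 days with NL4-3 carrying Renilla luciferase in place of part of nef and the Gag P373S change, in the presence of serially diluted inhibitor. Antiviral activity was quantified as luciferase signal from Dual Luciferase reagent.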

How did the pEC50 turn out when C=C(C)[C@@H]1CC[C@]2(NCCN3CCS(=O)(=O)CC3)CC[C@]3(C)[C@H](CC[C@@H]4[C@@]5(C)CC=C(C6=CCC(CC(=O)O)CC6)C(C)(C)[C@@H]5CC[C@]43C)[C@@H]12 (stereo partly drawn) [Example A25, 2-(4-((1R,3aS,5aR,5bR,7aR,11aS,11bR,13aR,13bR)-3a-((2-(1,1-dioxidothiomorpholino)ethyl)amino)-5a,5b,8,8,11a-pentamethyl-1-(prop-1-en-2-yl)-2,3,3a,4,5,5a,5b,6,7,7a,8,11,11a,11b,12,13,13a,13b-octadecahydro-1H-cyclopenta[a]chrysen-9-yl)cyclohex-3-en-1-yl)acetic acid] was run?
Its pEC50 is 8.88.

C=C(C)[C@@H]1CC[C@]2(NCCN3CCS(=O)(=O)CC3)CC[C@]3(C)[C@H](CC[C@@H]4[C@@]5(C)CC=C(C6=CC=C(C(=O)O)CC6)C(C)(C)[C@@H]5CC[C@]43C)[C@@H]12 [Example A29, 4-((1R,3aS,5aR,5bR,7aR,11aS,11bR,13aR,13bR)-3a-((2-(1,1-dioxidothiomorpholino)ethyl)amino)-5a,5b,8,8,11a-pentamethyl-1-(prop-1-en-2-yl)-2,3,3a,4,5,5a,5b,6,7,7a,8,11,11a,11b,12,13,13a,13b-octadecahydro-1H-cyclopenta[a]chrysen-9-yl)cyclohexa-1,3-dienecarboxylic acid] was tested. Which pEC50 did it give?
Its pEC50 is 8.86.

With C=C(C)[C@@H]1CC[C@]2(NCCS(=O)(=O)c3ccccc3)CC[C@]3(C)[C@H](CC[C@@H]4[C@@]5(C)CC=C(C6=CC=C(C(=O)O)CC6)C(C)(C)[C@@H]5CC[C@]43C)[C@@H]12 [Example A30, 4-((1R,3aS,5aR,5bR,7aR,11aS,11bR,13aR,13bR)-5a,5b,8,8,11a-pentamethyl-3a-((2-(phenylsulfonyl)ethyl)amino)-1-(prop-1-en-2-yl)-2,3,3a,4,5,5a,5b,6,7,7a,8,11,11a,11b,12,13,13a,13b-octadecahydro-1H-cyclopenta[a]chrysen-9-yl)cyclohexa-1,3-dienecarboxylic acid] as the compound, how does the pEC50 read?
The pEC50 was 7.05.

C=C(C)[C@@H]1CC[C@]2(NCCN3CCS(=O)(=O)CC3)CC[C@]3(C)[C@H](CC[C@@H]4[C@@]5(C)CC=C(C6=CCC(NC(C)=O)(C(=O)O)CC6)C(C)(C)[C@@H]5CC[C@]43C)[C@@H]12 (stereo partly drawn) [Example A31, 1-acetamido-4-((1R,3aS,5aR,5bR,7aR,11aS,11bR,13aR,13bR)-3a-((2-(1,1-dioxidothiomorpholino)ethyl)amino)-5a,5b,8,8,11a-pentamethyl-1-(prop-1-en-2-yl)-2,3,3a,4,5,5a,5b,6,7,7a,8,11,11a,11b,12,13,13a,13b-octadecahydro-1H-cyclopenta[a]chrysen-9-yl)cyclohex-3-enecarboxylic acid] was tested. Which pEC50 did it give?
Its pEC50 is 8.00.
